Results on 3 compounds are retold here after patent US7795241B2, “Derivative prodrugs of ethinyl estradiol” (Warner Chilcott Company, LLC, priority 2005, dated 2010).

Data set [1] can be described thus: Stability at 40° C./75% RH, prodrug assayed for degradation to ethinyl estradiol (HPLC). In kind it is physicochemical. The following applies: prodrug remaining; for Assay T = 2 W: 2 weeks; for Assay T = 0: T = 0 months; for Assay T = 1 M: 1 month; for Assay T = 6 M: 6 months. On the procedure:
Solubility was performed in water. […] The time-points for stability were T=0 months, T=2 weeks, T=1 month, T=3 months and T=6 months.
The following outlines the conditions utilized for analysis of this prodrug. Analysis was conducted using High-Performance Liquid Chromatography (HPLC).
The following outlines the conditions utilized for analysis of this prodrug. Analysis was conducted using HPLC.
The following outlines the conditions utilized for analysis of the prodrug. Analysis was conducted using HPLC.

Data set [2] in a line: Hydrolysis to the parent drug ethinyl estradiol (0.5N NaOH, HPLC quantification). The class given is physicochemical. The following applies: 5 min, prodrug solution + water + 0.5N NaOH. On the procedure: Hydrolysis studies refer to the rate of hydrolysis to the parent drug, ethinyl estradiol. Hydrolysis was conducted in the following manner: • (1) 1 mL of a solution containing the prodrug, 2.8 mL of water and 0.1 mL of 0.5N NaOH were combined; • (2) the resulting solution was vortexed for 10 seconds; • (3) the mixture was then left to stand for specific time intervals (e.g., 5 minutes, 15 minutes, etc.); • (4) the mixture was then neutralized with 0.1 mL of a buffer; and • (5) the solutions were finally injected to quantify the disappearance of the prodrug and the formation of the parent compound.

Setting [3] is: listed as ethinyl estradiol acetoxy acetate.
Where [4] appears, read: listed as ethinyl estradiol lactate acetate.

Turning to `C#CC1(O)CC[C@H]2[C@@H]3CCc4cc(OC(=O)[C@@H]5CCCN5C(C)=O)ccc4[C@H]3CC[C@@]21C` (stereo partly drawn) [Ethinyl Estradiol N-Acetyl Prolinate, ethinyl estradiol N-acetyl proline], in data set [1], the “Assay T = 2 W” value stood at 96.6% and the “Assay T = 0” value came to 97.2%.

Regarding ethinyl estradiol acetoxy acetate, the entries for the “Hydrolysis (to ethinyl estradiol)” value in data set [2] and in data set [2] (setting [3]) were 100% (5 min) and 100%, respectively. In addition, the “Assay T = 1 M” value turned out to be 97.0% in data set [1] and 97% in data set [1] (setting [3]). The “Assay T = 2 W” value in data set [1] worked out at 97.2%. Further, in data set [1], the “Assay T = 0” value turned out to be 97.8%.

Turning to ethinyl estradiol lactate-acetate, in data set [2], the “Hydrolysis (to ethinyl estradiol)” value was 100% (5 min). For the same compound, in data set [2] (setting [4]), the “Hydrolysis (to ethinyl estradiol)” value is 100%. Also, in data set [1], the “Assay T = 1 M” value stood at 93.67%, the “Assay T = 6 M” value is recorded as 95.89% and the “Assay T = 0” value was 94.43%. For the same compound, in data set [1] (3 months), the “Assay T = 3 M” value came to 95.91%. Moreover, the “Assay T = 6 M” value in data set [1] (setting [4]) is listed as 95.9%.
